Reference: patent US5221606A, “Reagent and kit for enzyme assay comprising a substrate consonant with given enzyme to be assayed” (King's College London, priority 1987, dated 1993)

What was measured:
stability on storage = type: physicochemical
[1] = solubility in water or aqueous buffer
carboxyesterase = experiment: substrate test with carboxyesterase; type: biochemical
Procedure: The serum samples were diluted by a factor of 10 prior to the assay. The substrate solution and the diluted sera were then preincubated at 37° C. in a water bath. Aliquots (0.75 ml) of the substrate solution were then pipetted into small plastic tubes (2 ml capacity), and 0.05 ml samples of the sera were added to each of the substrate aliquots and shaken vigorously to ensure adequate mixing. A blank was run by substituting water (0.05 ml) for the serum. The reaction was stopped after 10 min by the addition of the stopping buffer (0.25 ml) [prepared by dissolving DABCO (22.4 g) in water (200 ml) and adjusting the pH to 10 by the addition of a little conc. hydrochloric acid. The resulting mixture was then made up to 1000 ml with acetone]. […] [formula] where t=time of incubation in hours
Otherwise it was carried out in exactly the same ways as above

lipases = experiment: substrate test with lipases; type: biochemical
alkaline phosphatase = experiment: substrate test with alkaline phosphatase; type: biochemical
[2] = tested on: N-acetyl-β-D-glucosaminidase (NAGase); experiment: substrate test with N-acetyl-β-D-glucosaminidase; type: biochemical
Procedure: METHOD. The MIXTURE A is dissolved in 10 ml of distilled water to give SOLUTION A. The solution should be allowed to stand in a thermostatically controlled bath at 37° C., and then 0.75 ml of the solution is added to a series of suitable tubes of 2 ml capacity. To these tubes is added, with vigorous stirring, […] aliquots of the urines under examination, and a blank is prepared by adding 0.05 ml of distilled water rather than urine to one of the tubes. The tubes are then incubate for a set length of time (preferably 30 min), after which 0.25 ml of the STOPPING BUFFER is added to each tube and the absorption (A) at 505 nm is determined for each sample, and adjusted for the value of the blank.
The enzyme activity of the enzyme in each sample is given by the expression using and εmax =42,000. [formula] where t=time of incubation in hours

esterases = experiment: substrate test with esterases; type: biochemical

CCCC(=O)Oc1c(OC)cc(C=C2SC(=S)N(CC(=O)O)C2=O)cc1OC [11d, n=2, 5-(Butanoyloxy-3,5-dimethoxyphenylmethylene)-2-thioxothiazolidin-4-one-3-ethanoic acid]
stability on standing (stability on storage; potassium salt compared with free acid): slowly decomposed on standing
solubility in alkaline buffers ([1]; alkaline buffers (pH 8 etc.)): readily dissolved
solubility ([1]; water or aqueous buffer, aqueous buffer): > 2000 µM
quality as substrate for / cleavage by carboxyesterase (carboxyesterase): readily cleaved

CCCCCCCCCC(=O)Oc1c(OC)cc(C=C2SC(=S)N(CC(=O)O)C2=O)cc1OC [11d, n=8]
activity as substrate for lipase (lipases): good substrate

COc1cc(/C=C/c2ccc3ccccc3[n+]2C)ccc1OP(=O)(O)O [21f, 2-[2-(4-phosphoroyloxy-3-methoxyphenyl)-vinyl]-1-methylquinolinium iodide]
stability in storage (stability on storage): rather unstable in storage
solubility in water ([1]; water): very soluble in water
quality as substrate for / hydrolysis by alkaline phosphatase (alkaline phosphatase): reacted rapidly

COc1cc(/C=C/c2cc[n+](C)c3ccccc23)ccc1O[C@@H]1O[C@H](CO)[C@@H](O)[C@H](O)[C@H]1NC(C)=O [23b, 4-{2-[4-(2-acetamido-2-deoxy-β-D-glucopyranosyloxy)-3-methoxyphenyl]-vinyl}-1-methylquinolinium iodide]
solubility in water ([1]; water): good water solubility
quality as substrate for NAGase [2]: fair substrate

COc1cc(/C=C/c2cc[n+](C)c3ccccc23)cc(OC)c1OC(=O)c1ccccc1 [24e, 4-[2(4-Benzoyloxy-3,5-dimethoxyphenyl)-vinyl]-1-methylquinolinium iodide]
solubility ([1]; water): < 250 µM
activity as substrate for esterases (esterases): substrate for esterases

CCCCCCCCC(=O)Oc1c(OC)cc(C=C2SC(=S)N(c3ccc(C(=O)O)cc3)C2=O)cc1OC [Nonanoate]
activity as substrate for lipase (lipases): exhibited enzymatic activity
